Laboratory results reported in paper PMC6757289, “Design and Characterization of SGK3-PROTAC1, an Isoform Specific SGK3 Kinase PROTAC Degrader” (ACS Chemical Biology, 2019).
Like-named read-outs stand apart in the source and are kept apart here.

Tests used:
Assay in all cases: kinase profiling panel
Type in all cases: biochemical
Details in all cases: read-out: % Activity Remaining
EPH-A4 = EPH-A4 (Homo sapiens, UniProt P54764)
Description: (§1) Protein kinase profiling against a Dundee panel of 140 protein kinases was undertaken at the International Centre for Protein Kinase Profiling. The result for each kinase was presented as a mean kinase activity of the reaction taken in triplicate relative to a control sample treated with DMSO. Assay conditions and abbreviations are available at http://www.kinase-screen.mrc.ac.uk.

HIPK3 = HIPK3 (Homo sapiens, UniProt Q9H422)
Chain of HIPK3 (Q9H422 whole entry): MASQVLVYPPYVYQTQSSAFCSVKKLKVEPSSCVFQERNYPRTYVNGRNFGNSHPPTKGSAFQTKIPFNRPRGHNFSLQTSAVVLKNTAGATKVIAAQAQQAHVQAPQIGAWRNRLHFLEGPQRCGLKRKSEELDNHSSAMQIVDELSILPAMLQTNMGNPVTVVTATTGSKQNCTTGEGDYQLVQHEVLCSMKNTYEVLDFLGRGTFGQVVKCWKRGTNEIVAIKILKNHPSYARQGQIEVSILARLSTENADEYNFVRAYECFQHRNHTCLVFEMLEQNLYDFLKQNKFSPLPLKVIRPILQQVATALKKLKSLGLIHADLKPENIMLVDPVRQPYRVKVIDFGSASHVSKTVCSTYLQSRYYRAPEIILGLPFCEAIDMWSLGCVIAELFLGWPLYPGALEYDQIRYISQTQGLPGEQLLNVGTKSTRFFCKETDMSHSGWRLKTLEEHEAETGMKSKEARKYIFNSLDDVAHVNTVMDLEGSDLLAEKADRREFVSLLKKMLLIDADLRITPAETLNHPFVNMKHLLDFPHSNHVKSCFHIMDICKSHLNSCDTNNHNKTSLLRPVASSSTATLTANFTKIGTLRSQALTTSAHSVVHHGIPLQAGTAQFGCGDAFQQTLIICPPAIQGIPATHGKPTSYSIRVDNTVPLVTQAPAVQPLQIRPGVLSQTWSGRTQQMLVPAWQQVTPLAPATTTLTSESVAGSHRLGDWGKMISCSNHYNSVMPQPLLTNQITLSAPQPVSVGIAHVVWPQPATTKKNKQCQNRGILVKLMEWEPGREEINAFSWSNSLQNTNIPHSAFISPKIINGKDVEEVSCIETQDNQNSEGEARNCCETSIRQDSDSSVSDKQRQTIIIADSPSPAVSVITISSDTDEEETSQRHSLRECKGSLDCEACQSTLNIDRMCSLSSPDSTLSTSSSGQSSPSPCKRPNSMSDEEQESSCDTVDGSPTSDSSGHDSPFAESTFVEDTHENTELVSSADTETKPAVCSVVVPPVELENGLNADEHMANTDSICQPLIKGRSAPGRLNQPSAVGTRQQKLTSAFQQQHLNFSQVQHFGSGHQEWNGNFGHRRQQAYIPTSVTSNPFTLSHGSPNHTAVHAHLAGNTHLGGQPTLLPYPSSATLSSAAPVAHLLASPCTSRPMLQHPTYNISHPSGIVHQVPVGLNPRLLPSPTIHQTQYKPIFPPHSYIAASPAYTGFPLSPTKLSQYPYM
Description: as §1

PKA = PKA (Homo sapiens, UniProt P17612)
Description: as §1

EPH-B4 = target: T1, EPH-B4 (Homo sapiens, UniProt P54760)
T1 sequence (P54760 16-987): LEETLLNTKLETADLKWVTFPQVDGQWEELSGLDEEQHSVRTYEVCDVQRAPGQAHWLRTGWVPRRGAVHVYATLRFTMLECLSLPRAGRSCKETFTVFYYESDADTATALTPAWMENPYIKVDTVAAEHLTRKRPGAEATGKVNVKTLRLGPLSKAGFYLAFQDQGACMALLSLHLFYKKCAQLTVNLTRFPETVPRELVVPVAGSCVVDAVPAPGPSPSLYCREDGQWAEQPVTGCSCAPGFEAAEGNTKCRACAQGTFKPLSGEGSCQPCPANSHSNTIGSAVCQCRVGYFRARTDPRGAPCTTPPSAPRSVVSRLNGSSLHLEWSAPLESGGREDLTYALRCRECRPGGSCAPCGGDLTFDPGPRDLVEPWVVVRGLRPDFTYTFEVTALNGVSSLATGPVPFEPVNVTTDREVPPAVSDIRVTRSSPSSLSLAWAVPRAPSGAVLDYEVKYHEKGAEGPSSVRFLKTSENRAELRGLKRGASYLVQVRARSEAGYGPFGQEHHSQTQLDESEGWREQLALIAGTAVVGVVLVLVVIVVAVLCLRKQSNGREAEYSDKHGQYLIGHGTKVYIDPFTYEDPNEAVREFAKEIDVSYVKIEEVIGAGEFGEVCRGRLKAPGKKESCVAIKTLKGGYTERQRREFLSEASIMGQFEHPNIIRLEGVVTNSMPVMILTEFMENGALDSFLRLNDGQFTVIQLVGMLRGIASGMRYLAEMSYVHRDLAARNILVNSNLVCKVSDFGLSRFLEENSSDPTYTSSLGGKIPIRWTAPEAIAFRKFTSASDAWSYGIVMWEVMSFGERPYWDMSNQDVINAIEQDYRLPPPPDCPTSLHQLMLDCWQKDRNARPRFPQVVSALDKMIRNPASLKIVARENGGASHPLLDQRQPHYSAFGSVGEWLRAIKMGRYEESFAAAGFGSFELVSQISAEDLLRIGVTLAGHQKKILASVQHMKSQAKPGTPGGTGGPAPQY
Description: as §1

MEKK1 = MEKK1 (Homo sapiens, UniProt Q13233)
Chain of MEKK1 (Q13233 whole entry): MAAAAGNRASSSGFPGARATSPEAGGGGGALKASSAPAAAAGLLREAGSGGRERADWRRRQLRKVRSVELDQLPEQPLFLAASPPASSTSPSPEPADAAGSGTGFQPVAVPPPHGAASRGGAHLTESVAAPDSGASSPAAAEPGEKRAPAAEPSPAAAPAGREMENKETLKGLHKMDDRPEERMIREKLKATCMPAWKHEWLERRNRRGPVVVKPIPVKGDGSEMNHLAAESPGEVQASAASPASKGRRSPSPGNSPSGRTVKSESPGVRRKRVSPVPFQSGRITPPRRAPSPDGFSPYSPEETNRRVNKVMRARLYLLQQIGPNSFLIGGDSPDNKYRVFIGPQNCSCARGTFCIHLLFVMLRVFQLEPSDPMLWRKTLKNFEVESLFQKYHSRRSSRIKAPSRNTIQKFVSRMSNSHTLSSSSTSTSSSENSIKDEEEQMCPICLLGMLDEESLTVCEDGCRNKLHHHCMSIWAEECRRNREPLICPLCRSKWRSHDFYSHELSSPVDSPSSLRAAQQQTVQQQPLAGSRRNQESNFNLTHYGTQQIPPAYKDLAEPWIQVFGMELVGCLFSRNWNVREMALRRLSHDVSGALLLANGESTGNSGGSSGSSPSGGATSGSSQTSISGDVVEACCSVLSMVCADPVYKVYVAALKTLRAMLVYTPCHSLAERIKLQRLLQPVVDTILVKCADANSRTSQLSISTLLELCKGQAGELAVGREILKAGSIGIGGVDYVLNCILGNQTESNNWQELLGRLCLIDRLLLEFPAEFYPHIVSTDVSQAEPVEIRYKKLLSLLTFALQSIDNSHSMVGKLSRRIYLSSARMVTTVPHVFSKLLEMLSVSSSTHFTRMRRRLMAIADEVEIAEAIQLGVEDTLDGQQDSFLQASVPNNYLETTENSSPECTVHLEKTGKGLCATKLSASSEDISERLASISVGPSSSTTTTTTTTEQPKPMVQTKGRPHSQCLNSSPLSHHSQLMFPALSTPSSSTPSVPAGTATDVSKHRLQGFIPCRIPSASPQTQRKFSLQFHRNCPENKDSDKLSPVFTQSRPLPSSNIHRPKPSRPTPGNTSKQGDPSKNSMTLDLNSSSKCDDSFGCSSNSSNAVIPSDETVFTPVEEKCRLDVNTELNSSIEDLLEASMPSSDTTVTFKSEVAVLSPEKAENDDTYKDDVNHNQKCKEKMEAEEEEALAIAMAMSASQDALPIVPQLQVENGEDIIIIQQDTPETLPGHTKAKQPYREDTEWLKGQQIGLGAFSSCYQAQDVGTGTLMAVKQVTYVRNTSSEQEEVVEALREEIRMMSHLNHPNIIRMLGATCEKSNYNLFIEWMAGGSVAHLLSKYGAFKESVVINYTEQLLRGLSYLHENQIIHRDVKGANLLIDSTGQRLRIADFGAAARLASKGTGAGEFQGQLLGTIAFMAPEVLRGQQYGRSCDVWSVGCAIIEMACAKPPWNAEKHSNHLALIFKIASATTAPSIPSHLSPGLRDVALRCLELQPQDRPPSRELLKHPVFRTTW
Description: as §1

MARK3 = MARK3 (Homo sapiens, UniProt P27448)
Chain of MARK3 (P27448 whole entry): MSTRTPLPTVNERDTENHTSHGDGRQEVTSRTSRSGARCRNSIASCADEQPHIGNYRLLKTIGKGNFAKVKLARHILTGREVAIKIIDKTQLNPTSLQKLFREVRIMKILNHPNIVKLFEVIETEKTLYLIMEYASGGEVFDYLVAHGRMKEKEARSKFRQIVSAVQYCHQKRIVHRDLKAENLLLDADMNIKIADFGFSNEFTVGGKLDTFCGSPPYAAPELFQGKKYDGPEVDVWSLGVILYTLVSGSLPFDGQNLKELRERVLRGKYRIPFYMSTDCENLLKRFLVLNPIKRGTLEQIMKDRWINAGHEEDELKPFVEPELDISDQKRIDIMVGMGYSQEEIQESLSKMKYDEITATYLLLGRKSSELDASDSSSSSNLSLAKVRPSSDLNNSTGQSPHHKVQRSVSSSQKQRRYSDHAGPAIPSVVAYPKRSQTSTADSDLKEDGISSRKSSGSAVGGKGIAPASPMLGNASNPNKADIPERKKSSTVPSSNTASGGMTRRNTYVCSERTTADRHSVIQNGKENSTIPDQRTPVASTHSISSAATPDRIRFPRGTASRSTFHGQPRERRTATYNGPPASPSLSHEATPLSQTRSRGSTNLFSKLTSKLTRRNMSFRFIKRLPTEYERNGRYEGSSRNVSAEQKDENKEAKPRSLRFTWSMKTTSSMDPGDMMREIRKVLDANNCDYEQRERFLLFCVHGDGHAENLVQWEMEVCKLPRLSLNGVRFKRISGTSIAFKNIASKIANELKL
Description: as §1

ULK1 = target: T2, ULK1 (Homo sapiens, UniProt O75385)
T2 sequence (O75385 1-1050): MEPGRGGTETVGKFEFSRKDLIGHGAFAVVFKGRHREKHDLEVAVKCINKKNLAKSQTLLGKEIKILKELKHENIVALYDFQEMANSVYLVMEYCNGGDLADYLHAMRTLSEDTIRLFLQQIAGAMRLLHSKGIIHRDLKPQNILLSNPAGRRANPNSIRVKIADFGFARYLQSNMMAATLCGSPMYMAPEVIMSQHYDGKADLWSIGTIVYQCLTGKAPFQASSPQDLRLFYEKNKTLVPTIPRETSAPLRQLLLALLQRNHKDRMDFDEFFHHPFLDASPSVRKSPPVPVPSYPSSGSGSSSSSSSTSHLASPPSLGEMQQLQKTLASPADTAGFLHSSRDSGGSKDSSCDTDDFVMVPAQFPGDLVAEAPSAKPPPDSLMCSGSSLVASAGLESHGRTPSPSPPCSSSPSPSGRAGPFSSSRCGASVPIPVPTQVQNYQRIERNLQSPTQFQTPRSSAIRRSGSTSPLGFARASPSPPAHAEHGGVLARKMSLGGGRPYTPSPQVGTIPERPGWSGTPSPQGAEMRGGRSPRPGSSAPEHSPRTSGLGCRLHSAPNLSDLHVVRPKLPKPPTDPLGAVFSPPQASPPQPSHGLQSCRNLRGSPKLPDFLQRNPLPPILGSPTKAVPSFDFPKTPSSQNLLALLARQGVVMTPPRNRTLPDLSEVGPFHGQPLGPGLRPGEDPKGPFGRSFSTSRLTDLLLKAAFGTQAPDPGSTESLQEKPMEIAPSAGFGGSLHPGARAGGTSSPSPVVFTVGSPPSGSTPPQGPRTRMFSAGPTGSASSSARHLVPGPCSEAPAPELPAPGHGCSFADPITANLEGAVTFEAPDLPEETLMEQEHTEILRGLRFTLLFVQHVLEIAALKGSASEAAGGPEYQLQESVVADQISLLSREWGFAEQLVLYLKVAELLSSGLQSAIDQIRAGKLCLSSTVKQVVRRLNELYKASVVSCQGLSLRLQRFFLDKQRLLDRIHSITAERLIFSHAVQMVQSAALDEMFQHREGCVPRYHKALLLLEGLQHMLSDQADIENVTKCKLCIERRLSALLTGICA
Description: as §1

PLK1 = PLK1 (Homo sapiens, UniProt P53350)
Chain of PLK1 (P53350 whole entry): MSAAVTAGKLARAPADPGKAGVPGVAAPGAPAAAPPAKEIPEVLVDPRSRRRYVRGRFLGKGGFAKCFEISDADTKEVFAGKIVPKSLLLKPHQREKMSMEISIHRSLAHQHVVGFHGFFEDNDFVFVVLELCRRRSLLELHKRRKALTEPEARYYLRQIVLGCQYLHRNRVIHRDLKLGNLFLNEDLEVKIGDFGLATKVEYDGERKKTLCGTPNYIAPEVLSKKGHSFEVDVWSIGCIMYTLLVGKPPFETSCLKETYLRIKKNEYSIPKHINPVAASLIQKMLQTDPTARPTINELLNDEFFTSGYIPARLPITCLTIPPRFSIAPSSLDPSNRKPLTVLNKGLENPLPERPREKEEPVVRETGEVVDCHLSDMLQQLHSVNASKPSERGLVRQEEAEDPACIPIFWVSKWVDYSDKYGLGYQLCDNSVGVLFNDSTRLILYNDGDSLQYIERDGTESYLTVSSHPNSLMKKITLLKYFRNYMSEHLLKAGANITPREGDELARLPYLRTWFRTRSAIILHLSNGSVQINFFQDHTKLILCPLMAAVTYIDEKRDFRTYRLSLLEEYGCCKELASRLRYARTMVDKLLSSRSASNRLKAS
Description: as §1

PDGFRA = PDGFRA (Homo sapiens, UniProt P16234)
Description: as §1

Chain of EPH-A4 (P54764 20-986): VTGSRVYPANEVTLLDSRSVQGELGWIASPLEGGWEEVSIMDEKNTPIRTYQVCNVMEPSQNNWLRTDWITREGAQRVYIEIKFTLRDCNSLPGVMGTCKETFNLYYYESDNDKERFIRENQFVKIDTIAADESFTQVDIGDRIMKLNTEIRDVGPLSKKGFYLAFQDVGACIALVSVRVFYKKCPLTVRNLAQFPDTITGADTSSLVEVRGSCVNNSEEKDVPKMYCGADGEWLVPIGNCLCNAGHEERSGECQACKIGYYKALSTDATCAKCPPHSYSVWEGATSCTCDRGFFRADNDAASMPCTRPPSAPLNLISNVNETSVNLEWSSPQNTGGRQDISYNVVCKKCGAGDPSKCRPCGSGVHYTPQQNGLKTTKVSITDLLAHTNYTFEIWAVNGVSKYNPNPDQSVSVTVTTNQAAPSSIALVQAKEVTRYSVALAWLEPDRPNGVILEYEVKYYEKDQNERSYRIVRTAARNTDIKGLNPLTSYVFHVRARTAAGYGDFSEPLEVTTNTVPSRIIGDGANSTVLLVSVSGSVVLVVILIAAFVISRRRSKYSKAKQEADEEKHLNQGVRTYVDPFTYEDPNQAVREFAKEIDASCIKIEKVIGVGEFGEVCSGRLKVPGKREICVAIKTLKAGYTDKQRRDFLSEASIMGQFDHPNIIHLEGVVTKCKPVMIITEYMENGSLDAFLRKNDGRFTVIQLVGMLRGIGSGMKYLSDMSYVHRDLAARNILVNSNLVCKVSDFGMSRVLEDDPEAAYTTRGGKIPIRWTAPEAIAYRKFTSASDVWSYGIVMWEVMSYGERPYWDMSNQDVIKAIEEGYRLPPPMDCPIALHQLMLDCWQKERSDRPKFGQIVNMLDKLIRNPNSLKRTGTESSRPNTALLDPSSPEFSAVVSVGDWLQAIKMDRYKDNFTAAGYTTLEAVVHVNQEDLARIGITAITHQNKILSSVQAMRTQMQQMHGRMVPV

Row | SMILES | remaining activity at 1 µM (EPH-A4) [%] | remaining activity at 1 µM (HIPK3) [%] | remaining activity at 1 µM (PKA) [%] | remaining activity at 1 µM (EPH-B4) [%] | remaining activity at 1 µM (MEKK1) [%] | remaining activity at 1 µM (MARK3) [%] | remaining activity at 1 µM (ULK1) [%] | remaining activity at 1 µM (PLK1) [%] | remaining activity at 1 µM (PDGFRA) [%] | remaining activity at 1 µM (EPH-A4; 1 µM) [%] | remaining activity at 1 µM (HIPK3; 1 µM) [%] | remaining activity at 1 µM (PKA; 1 µM) [%] | remaining activity at 1 µM (EPH-B4; 1 µM) [%] | remaining activity at 1 µM (MEKK1; 1 µM) [%] | remaining activity at 1 µM (MARK3; 1 µM) [%] | remaining activity at 1 µM (ULK1; 1 µM) [%] | remaining activity at 1 µM (PLK1; 1 µM) [%] | remaining activity at 1 µM (PDGFRA; 1 µM) [%]
1 | COc1ccc(Cl)c(S(=O)(=O)Nc2ccc(-c3nc(OC[C@H]4CNCCO4)c4c(C)n[nH]c4n3)cc2)c1 [290-R, reference compound] | 95 | 109 | 85 | 103 | 112 | 89 | 78 | 102 | 91 |  |  |  |  |  |  |  |  | 
2 | Cc1ccc(F)c(S(=O)(=O)Nc2ccc(-c3nc(OC[C@H]4CNCCO4)c4cn[nH]c4n3)cc2)c1 [308-R, reference compound] | 53 | 44 | 106 | 124 | 115 | 103 | 103 | 86 | 115 |  |  |  |  |  |  |  |  | 
3 | Cc1ccc(F)c(S(=O)(=O)Nc2ccc(-c3nc(OC[C@H]4CN(CCCCCCOCCOCCOCC(=O)N[C@H](C(=O)N5C[C@H](O)C[C@H]5C(=O)NCc5ccc(-c6scnc6C)cc5)C(C)(C)C)CCO4)c4cn[nH]c4n3)cc2)c1 [SGK3-PROTAC1] |  |  |  |  |  |  |  |  |  | 106 | 111 | 108 | 107 | 124 | 98 | 116 | 98 | 101
4 | Cc1ccc(F)c(S(=O)(=O)Nc2ccc(-c3nc(OC[C@H]4CN(CCCCCCOCCOCCOCC(=O)N[C@H](C(=O)N5C[C@@H](O)C[C@H]5C(=O)NCc5ccc(-c6scnc6C)cc5)C(C)(C)C)CCO4)c4cn[nH]c4n3)cc2)c1 [cisSGK3-PROTAC1] |  |  |  |  |  |  |  |  |  | 89 | 105 | 111 | 108 | 128 | 109 | 112 | 98 | 95
